{"source": "patent US12291536B2", "about": "“Crystal form of Wee1 inhibitor compound and use thereof” (Wuxi Biocity Biopharmaceutics Co., Ltd., priority 2019, dated 2025)", "key": {"Wee1": {"target": "T1, Wee1 (Homo sapiens, UniProt P30291)", "T1 construct": "purchased Eurofins", "T1 sequence (P30291 whole entry)": "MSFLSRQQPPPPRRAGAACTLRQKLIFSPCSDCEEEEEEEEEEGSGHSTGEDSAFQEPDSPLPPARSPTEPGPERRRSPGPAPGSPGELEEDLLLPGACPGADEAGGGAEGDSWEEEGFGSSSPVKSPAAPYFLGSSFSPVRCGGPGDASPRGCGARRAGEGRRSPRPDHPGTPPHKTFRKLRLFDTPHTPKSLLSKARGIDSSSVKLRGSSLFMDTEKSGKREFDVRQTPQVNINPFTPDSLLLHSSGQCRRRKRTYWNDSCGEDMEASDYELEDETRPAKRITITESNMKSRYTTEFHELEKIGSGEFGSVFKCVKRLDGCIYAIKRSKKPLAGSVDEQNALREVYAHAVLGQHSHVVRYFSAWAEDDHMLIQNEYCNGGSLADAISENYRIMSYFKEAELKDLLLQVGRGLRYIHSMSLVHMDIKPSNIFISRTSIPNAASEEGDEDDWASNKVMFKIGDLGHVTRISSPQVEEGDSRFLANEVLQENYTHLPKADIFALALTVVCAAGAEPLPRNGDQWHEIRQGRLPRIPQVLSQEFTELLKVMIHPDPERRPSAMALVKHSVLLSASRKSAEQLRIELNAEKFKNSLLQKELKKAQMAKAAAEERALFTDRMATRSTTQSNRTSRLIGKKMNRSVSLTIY", "experiment": "In vitro enzymatic inhibitory activity (Eurofins, [γ-33P]-ATP filter assay)", "format": "biochemical", "settings": "10 μM ATP, 40 min, room temperature", "procedure": "The experimental test was carried out in Eurofins, and the experimental results were provided by the company.\nInto the test system were added 20 mM Tris-HCl, pH 8.5, 0.2 mM EDTA, 500 μM polypeptide substrate ([sequence]), 10 mM magnesium acetate and 10 μM [γ-^33P]-ATP (intensity of about 500 cpm/pmol). After addition of Mg^2+ and ATP mixture, the reaction was initiated and incubated at room temperature for 40 min. 3% phosphate buffer was added to stop the reaction.\n10 μL of reaction solution was taken and filtered on a continuous filter P30, and washed three times with 75 mM phosphate buffer, once with methanol, each washing for 5 min. After drying, the values were read by scintillation counting method."}, "[1]": {"system": "human pancreatic cancer BxPC-3 cell xenograft tumor", "experiment": "In vivo pharmacodynamic study, human pancreatic cancer BxPC-3 subcutaneously transplanted tumor model", "parameters": "species or system BALB/c nude mice", "settings": "BxPC-3 xenograft, gavage 25 mg/Kg once a day, 27 days", "method": "Experimental procedure: The selected experimental animals were BALB/c nude mice, 6-8 weeks, weighing 18-22 g.\nThe 10th generation of BxPC-3 cells were cultured in monolayer in vitro, and the culture conditions were RPMI 1640 medium (Manufacturer: Gibco, Catalog: 22400-089) with 10% fetal bovine serum, 100 U/mL penicillin and 100 μg/mL Streptomycin, 37° C., 5% CO2, 4 passages. The passage method was twice a week with trypsin-EDTA for routine digestion and passage. When the cell saturation reached 80%-90%, the cells were digested with trypsin-EDTA, counted, and resuspended in PBS at a density of 5×10^7 cells/mL. Each animal was inoculated with 0.1 mL (5×10^6 cells) of BxPC-3 cells on the right back. When the average tumor volume reached 153 mm^3, they were randomly grouped according to the tumor volume and administration was started. Gavage dosage: 25 mg/Kg, once a day.\n(§1) The experimental index was to investigate whether the tumor growth was inhibited, alleviated or cured. The diameters of the tumors were measured with a vernier caliper twice a week. The anti-tumor efficacy of the compound was evaluated by TGI (%) or the relative tumor growth rate T/C (%). TGI (%) reflects the tumor growth inhibition rate. […]"}, "[2]": {"system": "mouse colon cancer CT26 cell allograft tumor", "experiment": "In vivo anti-tumor efficacy, CT26 mouse colon cancer cell transplanted tumor model", "parameters": "species or system BALB/c nude mice", "settings": "gavage 30 mg/kg twice a day, 18 days", "method": "Experimental procedure: The selected experimental animals were BALB/c nude mice, 7 weeks, weighing 16-20 g, female.\nCells: Mouse colon cancer CT26 cells (Cell Bank of Type Culture Collection Committee of Chinese Academy of Sciences) were cultured in monolayer in vitro, and culture condition was RPMI-1640 medium containing 10% fetal bovine serum, in 37° C., 5% CO2 incubator. Trypsin-EDTA was used for routine digestion and passage. When the cells were in the exponential growth phase and the saturation was 80%-90%, the cells were collected, counted, and inoculated. 0.1 mL of DPBS (containing 3×10^5 CT26 cells) was subcutaneously inoculated on the right back of each mouse. When the average tumor volume reached 50-70 mm^3, randomized administration was carried out according to the tumor volume. Gavage dosage: 30 mg/kg, twice a day.\nas §1"}, "P-gp (human MDR1)": {"system": "P-gp (human MDR1)", "experiment": "In vitro permeability test in MDR1-MDCK II cells", "format": "in vitro ADME, canine", "settings": "dog", "description": "(§2) MDR1-MDCK II cell authorized by the Piet Borst Laboratory of the Netherlands Cancer Institute was used in the study, the cell is a Madin-Darby canine kidney cell transfected with the human multi-drug resistance gene (MDR1), which can stably express efflux transporter P glycoprotein (P-gp) and therefore is suitable for screening P-gp substrate or inhibitor, and for predicting the permeability of compounds with high efflux barriers such as duodenum, blood-brain barrier, […], and kidney unit. MDR1-MDCK II cells of from passage 5-35 were used for permeability study.\n(§3) MDR1-MDCK II cells were cultured with α-MEM medium (α-Minimum Essential Media) under culture condition of 37±1° C., 5% CO2 and saturated relative humidity. Then, the cells were seeded in a BD Transwell-96 well plate at a seeding density of 2.3×10^5 cells/cm^2, and then the cells were cultured in a carbon dioxide incubator for 4-7 days for transport experiment. The preparation method of its α-MEM medium was as follows:\n(§4) The liquid nutrient base was prepared with powder (α-MEM powder from Gibco, Cat #:11900) dissolved in pure water, and was added with L- (L-glutamine) and NaHCO3. Then 10% FBS (fetal bovine serum), 1% PS (double antibody) and 1% NEAA were added upon use to make a complete medium. […]\n(§5) After all samples were vortexed and centrifuged at 3220 g for 10 min, an appropriate volume of supernatant was transferred to the sample analysis plate. After the plate was sealed, the sample should be stored at 2-8° C. if it was not analyzed immediately, using the LC-MS/MS method for analysis.\n(§6) After the transport experiment was over, the integrity of the MDR1-MDCK II cells was tested by the Lucifer Yellow Rejection Assay. After 30 min of incubation with the Lucifer Yellow solution, the Lucifer Yellow sample was collected, and the 2e plate reader set at 425/528 nm (Excitation/Emission) was used to detect the relative fluorescence intensity (RFU) of fluorescent yellow in the sample."}, "P-gp (MDR1)": {"system": "P-gp (MDR1)", "experiment": "In vitro permeability test in MDR1-MDCK II cells", "format": "in vitro ADME, canine", "settings": "dog", "description": "as §2, §3, §4, §5, §6"}, "[3]": {"system": "human colon cancer LoVo cell subcutaneous xenograft tumor", "experiment": "In vivo pharmacodynamic study, human colon cancer LoVo cell subcutaneous xenograft tumor model", "parameters": "species or system BALB/c nude mice", "settings": "gavage 40 mg/kg twice a day, 16 days", "method": "Experimental method: The selected experimental animals (provided by Shanghai SIPPR-BK Experimental Animal Co., Ltd.) were BALB/c nude mice, 6-8 weeks, weighing 18-22 g.\nHuman colon cancer LoVo cells were cultured in monolayer in vitro, and culture conditions were Ham's F-12 medium with 10% fetal bovine serum, 100 U/mL penicillin, 100 μg/mL streptomycin and 2 mM glutamine, 37° C., 5% CO2. Trypsin-EDTA was used for routine digestion and passage, twice a week. When the cell saturation is 80%-90%, the cells were collected, counted, and inoculated. 0.1 mL (10×10^6 cells) of LoVo cells were subcutaneously inoculated on the right back of each nude mouse, and group administration was initiated when the average tumor volume reached 213 mm^3. Dosage for gavage administration was 40 mg/kg, twice a day. The experimental index was to investigate whether the tumor growth was inhibited, alleviated or cured. The diameters of the tumors were measured with a vernier caliper twice a week. The calculation formula for the tumor volume was V=0.5a×b^2, where a and b represent the long diameter and short diameter of the tumor, respectively.\nThe anti-tumor efficacy of the compound was evaluated by TGI (%) or the relative tumor growth rate T/C (%). TGI (%) reflects the tumor growth inhibition rate. […]"}, "[4]": {"experiment": "Pharmacokinetic evaluation after single intravenous and single oral administration", "format": "in vivo, female Balb/c Nude mice", "settings": "female, Balb/c Nude; for AUC(0-t): read-out: Area under the drug-time curve AUC0-last; for half-life: read-out: Half-life T1/2 (converted)", "method": "Twelve mice (provided by Lingchang) were randomly divided into two groups, 6 females in each group, and samples were collected by cross-blood sampling.\nIn the intravenous group, plasma samples were collected at 9 time points: 5 min, 15 min, 30 min, 1 h, 2 h, 4 h, 6 h, 8 h, and 24 h after the administration. In the oral group, plasma samples were collected at 8 time points: 15 min, 30 min, 1 h, 2 h, 4 h, 6 h, 8 h and 24 h after the administration."}, "[5]": {"experiment": "Solid stability test of Crystal Form F under high temperature, high humidity, illumination and accelerated conditions", "format": "physicochemical", "method": "According to influencing factors and accelerated test conditions, about 5 mg of Crystal Form F of the Compound of Formula (I) was weighed precisely and placed in a dry and clean glass bottle, in duplicate, and spread into a thin layer, as the formal test sample, placed under the influencing factors test conditions (60° C., 92.5% RH (relative humidity)) and accelerated conditions (40° C./75% RH and 60° C./75% RH), with the samples fully exposed. The test system was covered with an aluminum foil paper with small holes. In addition, a small amount of samples were taken and placed in a 40 mL glass sample bottle under the same conditions to determine the crystal state. Sampling and analysis were performed on day 5 days, 10 days, and one month. The samples placed under Illumination (visible light 1200000 Lux, UV 200 W) conditions were fully exposed at room temperature."}, "[6]": {"settings": "po, Administration by gavage, 10 mg/kg, mouse plasma"}, "[7]": {"settings": "Intravenous administration, 1 mg/kg, mouse plasma"}, "[8]": {"settings": "Illumination (visible light 1200000 Lux, UV 200 W), room temperature"}}}
{"smiles": "CN1CCN(c2ccc(Nc3ncc4c(=O)n5n(c4n3)-c3cccc(n3)[C@](C)(O)CC/C=C\\C5)cc2)CC1", "note": "(single isomer, unassigned) [Compound of Formula (I)]", "values": [{"measurement": "IC50", "setting": "Wee1", "result": 29, "unit": "nM"}, {"measurement": "TGI (%)", "setting": "[1]", "result": 73.3, "unit": "%"}, {"measurement": "TGI (%)", "setting": "[2]", "result": 93.38, "unit": "%"}, {"measurement": "efflux ratio at 150 min, 2 μM", "setting": "P-gp (human MDR1)", "result": 3.82}, {"measurement": "Papp A→B at 150 min, 2 μM", "setting": "P-gp (MDR1); read-out: Penetration rate A to B", "result": 4.55, "unit": "×10⁻⁶ cm/s"}, {"measurement": "Papp B→A at 150 min, 2 μM", "setting": "P-gp (MDR1); read-out: Penetration rate B to A", "result": 17.4, "unit": "×10⁻⁶ cm/s"}, {"measurement": "TGI (%)", "setting": "[3]", "result": 84.74, "unit": "%"}, {"measurement": "bioavailability", "setting": "[4]; mouse, plasma, po, Administration by gavage, 10 mg/kg, read-out: Bioavailability F (%)", "result": 62.4, "unit": "%"}, {"measurement": "AUC(0-t)", "setting": "[4]; [6]", "result": 6.04, "unit": "µM·h"}, {"measurement": "clearance", "setting": "[4]; Intravenous administration, 1 mg/kg, mouse plasma, read-out: Clearance rate", "result": 33.5, "unit": "mL/min/kg"}, {"measurement": "half-life", "setting": "[4]; [7]", "result": 101, "unit": "min"}]}
{"smiles": "C=CCn1c(=O)c2cnc(Nc3ccc(N4CCN(C)CC4)cc3)nc2n1-c1cccc(C(C)(C)O)n1", "note": "[AZD1775, reference compound]", "values": [{"measurement": "TGI (%)", "setting": "[1]", "result": 24.3, "unit": "%"}, {"measurement": "TGI (%)", "setting": "[2]", "result": 66.43, "unit": "%"}, {"measurement": "TGI (%)", "setting": "[3]", "result": 26.73, "unit": "%"}, {"measurement": "AUC(0-t)", "setting": "[4]; [6]", "result": 1.2, "unit": "µM·h"}, {"measurement": "half-life", "setting": "[4]; [7]", "result": 15.1, "unit": "min"}]}
{"smiles": "CN1CCN(c2ccc(Nc3ncc4c(=O)n5n(c4n3)-c3cccc(n3)[C@](C)(O)CC/C=C\\C5)cc2)CC1", "note": "[Crystal Form F]", "values": [{"measurement": "Content %", "setting": "[5]; 0 day", "result": 99.38, "unit": "%"}, {"measurement": "Total impurity %", "setting": "[5]; 0 day", "result": 0.63, "unit": "%"}, {"measurement": "Content %", "setting": "[5]; 40° C.-75% humidity, 1 month", "result": 97.94, "unit": "%"}, {"measurement": "Total impurity %", "setting": "[5]; 40° C.-75% humidity, 1 month", "result": 0.62, "unit": "%"}, {"measurement": "Content %", "setting": "[5]; 40° C.-75% humidity, 10 day", "result": 98.01, "unit": "%"}, {"measurement": "Total impurity %", "setting": "[5]; 40° C.-75% humidity, 10 day", "result": 0.63, "unit": "%"}, {"measurement": "Content %", "setting": "[5]; 60° C., 5 days", "result": 99.39, "unit": "%"}, {"measurement": "Total impurity %", "setting": "[5]; 60° C., 5 days", "result": 0.74, "unit": "%"}, {"measurement": "Content %", "setting": "[5]; 60° C., 10 days", "result": 99.98, "unit": "%"}, {"measurement": "Total impurity %", "setting": "[5]; 60° C., 10 days", "result": 0.84, "unit": "%"}, {"measurement": "Content %", "setting": "[5]; 60° C.-75% humidity, 1 month", "result": 99.46, "unit": "%"}, {"measurement": "Total impurity %", "setting": "[5]; 60° C.-75% humidity, 1 month", "result": 0.75, "unit": "%"}, {"measurement": "Content %", "setting": "[5]; 60° C.-75% humidity, 10 day", "result": 100.43, "unit": "%"}, {"measurement": "Total impurity %", "setting": "[5]; 60° C.-75% humidity, 10 day", "result": 0.69, "unit": "%"}, {"measurement": "Content %", "setting": "[5]; 92.5% humidity, 5 days", "result": 98.72, "unit": "%"}, {"measurement": "Total impurity %", "setting": "[5]; 92.5% humidity, 5 days", "result": 0.61, "unit": "%"}, {"measurement": "Content %", "setting": "[5]; 92.5% humidity, 10 days", "result": 98.38, "unit": "%"}, {"measurement": "Total impurity %", "setting": "[5]; 92.5% humidity, 10 days", "result": 0.64, "unit": "%"}, {"measurement": "Content %", "setting": "[5]; [8]", "result": 98.58, "unit": "%"}, {"measurement": "Total impurity %", "setting": "[5]; [8]", "result": 0.67, "unit": "%"}, {"measurement": "Content %", "setting": "[5]; Protection from light", "result": 97.77, "unit": "%"}, {"measurement": "Total impurity %", "setting": "[5]; Protection from light", "result": 0.61, "unit": "%"}, {"measurement": "Crystal form change (physical stability)", "setting": "[5]; one-month solid influencing factor and accelerated test", "result": "did not change"}]}
